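All cell lines were grown in 96-well plates and treated with compound for 48 hours. TGI: concentration producing complete growth inhibition.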
Each molecule was assayed on T-47D breast (assay: growth of human tumour cells (NCI), 48 h).

Structure (SMILES) | TGI [µM]
C=CCN1C[C@H](C)N([C@H](c2ccc(C(=O)NC(CC)CC)cc2)c2cccc(OC)c2)C[C@H]1C | > 100
O=C1/C(=C\c2ccccc2)C(NC2CCCCC2)c2ccccc21 (stereo not drawn) | 4.69

The molecules below were run on A498 renal (assay: growth of human tumour cells (NCI), 48 h).

Structure (SMILES) | TGI [µM]
Cc1c(C(=O)CC(=O)C(=O)Nc2ccccc2C(F)(F)F)[n+](=O)c2ccccc2n1[O-] | > 100
COc1ccccc1N1C(=O)C2c3[nH]c4ccccc4c3C3CCC(C(C)(C)C)CC3C2C1=O (stereo not drawn) | > 100
O=C1C=CC(=O)c2c1ccc1c3ccccc3n(CCCCCCCCCCCCn3c4ccccc4c4ccc5c(c43)C(=O)C=CC5=O)c21 | > 100
CC1(C)OC(=O)N(c2ccccc2)C12C=Cc1cc([N+](=O)[O-])cc([N+](=O)[O-])c1O2 (stereo not drawn) | > 100
C=CCN1C[C@H](C)N([C@H](c2ccc(C(=O)NC(CC)CC)cc2)c2cccc(OC)c2)C[C@H]1C | 63.3
O=C1/C(=C\c2ccccc2)C(NC2CCCCC2)c2ccccc21 (stereo not drawn) | 32.7

The molecules below were run on SF-268 CNS (assay: growth of human tumour cells (NCI), 48 h).

Structure (SMILES) | TGI [µM]
Cc1c(C(=O)CC(=O)C(=O)Nc2ccccc2C(F)(F)F)[n+](=O)c2ccccc2n1[O-] | 69
COc1ccccc1N1C(=O)C2c3[nH]c4ccccc4c3C3CCC(C(C)(C)C)CC3C2C1=O (stereo not drawn) | > 100
O=C1C=CC(=O)c2c1ccc1c3ccccc3n(CCCCCCCCCCCCn3c4ccccc4c4ccc5c(c43)C(=O)C=CC5=O)c21 | > 100
CC1(C)OC(=O)N(c2ccccc2)C12C=Cc1cc([N+](=O)[O-])cc([N+](=O)[O-])c1O2 (stereo not drawn) | > 100
C=CCN1C[C@H](C)N([C@H](c2ccc(C(=O)NC(CC)CC)cc2)c2cccc(OC)c2)C[C@H]1C | > 100
CC(C)CCS(=O)(=O)OCCCCOS(=O)(=O)CCC(C)C | > 100
O=C1/C(=C\c2ccccc2)C(NC2CCCCC2)c2ccccc21 (stereo not drawn) | 13

Each molecule was assayed on SF-295 CNS (assay: growth of human tumour cells (NCI), 48 h).

Structure (SMILES) | TGI [µM]
Cc1c(C(=O)CC(=O)C(=O)Nc2ccccc2C(F)(F)F)[n+](=O)c2ccccc2n1[O-] | > 100
COc1ccccc1N1C(=O)C2c3[nH]c4ccccc4c3C3CCC(C(C)(C)C)CC3C2C1=O (stereo not drawn) | > 100
O=C1C=CC(=O)c2c1ccc1c3ccccc3n(CCCCCCCCCCCCn3c4ccccc4c4ccc5c(c43)C(=O)C=CC5=O)c21 | > 100
CC1(C)OC(=O)N(c2ccccc2)C12C=Cc1cc([N+](=O)[O-])cc([N+](=O)[O-])c1O2 (stereo not drawn) | > 100
C=CCN1C[C@H](C)N([C@H](c2ccc(C(=O)NC(CC)CC)cc2)c2cccc(OC)c2)C[C@H]1C | > 100
CC(C)CCS(=O)(=O)OCCCCOS(=O)(=O)CCC(C)C | > 100
O=C1/C(=C\c2ccccc2)C(NC2CCCCC2)c2ccccc21 (stereo not drawn) | 33.5

Each molecule was assayed on NCI-H522 lung (assay: growth of human tumour cells (NCI), 48 h).

Structure (SMILES) | TGI [µM]
Cc1c(C(=O)CC(=O)C(=O)Nc2ccccc2C(F)(F)F)[n+](=O)c2ccccc2n1[O-] | 35.8
COc1ccccc1N1C(=O)C2c3[nH]c4ccccc4c3C3CCC(C(C)(C)C)CC3C2C1=O (stereo not drawn) | > 100
O=C1C=CC(=O)c2c1ccc1c3ccccc3n(CCCCCCCCCCCCn3c4ccccc4c4ccc5c(c43)C(=O)C=CC5=O)c21 | > 100
CC1(C)OC(=O)N(c2ccccc2)C12C=Cc1cc([N+](=O)[O-])cc([N+](=O)[O-])c1O2 (stereo not drawn) | > 100
C=CCN1C[C@H](C)N([C@H](c2ccc(C(=O)NC(CC)CC)cc2)c2cccc(OC)c2)C[C@H]1C | 34.7
CC(C)CCS(=O)(=O)OCCCCOS(=O)(=O)CCC(C)C | > 100
O=C1/C(=C\c2ccccc2)C(NC2CCCCC2)c2ccccc21 (stereo not drawn) | 2.05

The molecules below were run on OVCAR-5 ovarian (assay: growth of human tumour cells (NCI), 48 h).

Structure (SMILES) | TGI [µM]
Cc1c(C(=O)CC(=O)C(=O)Nc2ccccc2C(F)(F)F)[n+](=O)c2ccccc2n1[O-] | 65.9
O=C1C=CC(=O)c2c1ccc1c3ccccc3n(CCCCCCCCCCCCn3c4ccccc4c4ccc5c(c43)C(=O)C=CC5=O)c21 | > 100
CC1(C)OC(=O)N(c2ccccc2)C12C=Cc1cc([N+](=O)[O-])cc([N+](=O)[O-])c1O2 (stereo not drawn) | > 100
C=CCN1C[C@H](C)N([C@H](c2ccc(C(=O)NC(CC)CC)cc2)c2cccc(OC)c2)C[C@H]1C | > 100
O=C1/C(=C\c2ccccc2)C(NC2CCCCC2)c2ccccc21 (stereo not drawn) | 10.4

These molecules were tested on CCRF-CEM leukemia (assay: growth of human tumour cells (NCI), 48 h).

Structure (SMILES) | TGI [µM]
Cc1c(C(=O)CC(=O)C(=O)Nc2ccccc2C(F)(F)F)[n+](=O)c2ccccc2n1[O-] | 50
COc1ccccc1N1C(=O)C2c3[nH]c4ccccc4c3C3CCC(C(C)(C)C)CC3C2C1=O (stereo not drawn) | > 100
O=C1C=CC(=O)c2c1ccc1c3ccccc3n(CCCCCCCCCCCCn3c4ccccc4c4ccc5c(c43)C(=O)C=CC5=O)c21 | 74.1
CC1(C)OC(=O)N(c2ccccc2)C12C=Cc1cc([N+](=O)[O-])cc([N+](=O)[O-])c1O2 (stereo not drawn) | > 100
C=CCN1C[C@H](C)N([C@H](c2ccc(C(=O)NC(CC)CC)cc2)c2cccc(OC)c2)C[C@H]1C | > 100
CC(C)CCS(=O)(=O)OCCCCOS(=O)(=O)CCC(C)C | > 100
O=C1/C(=C\c2ccccc2)C(NC2CCCCC2)c2ccccc21 (stereo not drawn) | 0.294

What follows are molecules tested on HOP-92 NSCLC (assay: growth of human tumour cells (NCI), 48 h).

Structure (SMILES) | TGI [µM]
Cc1c(C(=O)CC(=O)C(=O)Nc2ccccc2C(F)(F)F)[n+](=O)c2ccccc2n1[O-] | 60.1
COc1ccccc1N1C(=O)C2c3[nH]c4ccccc4c3C3CCC(C(C)(C)C)CC3C2C1=O (stereo not drawn) | > 100
O=C1C=CC(=O)c2c1ccc1c3ccccc3n(CCCCCCCCCCCCn3c4ccccc4c4ccc5c(c43)C(=O)C=CC5=O)c21 | > 100
CC1(C)OC(=O)N(c2ccccc2)C12C=Cc1cc([N+](=O)[O-])cc([N+](=O)[O-])c1O2 (stereo not drawn) | > 100
C=CCN1C[C@H](C)N([C@H](c2ccc(C(=O)NC(CC)CC)cc2)c2cccc(OC)c2)C[C@H]1C | > 100
O=C1/C(=C\c2ccccc2)C(NC2CCCCC2)c2ccccc21 (stereo not drawn) | 4.8

Each molecule was assayed on HOP-62 NSCLC (assay: growth of human tumour cells (NCI), 48 h).

Structure (SMILES) | TGI [µM]
Cc1c(C(=O)CC(=O)C(=O)Nc2ccccc2C(F)(F)F)[n+](=O)c2ccccc2n1[O-] | > 100

— PubChem BioAssay (NCI)
